Data: US12458650B2, “Urination disorder-improving agent” (ASKA Pharmaceutical Co., Ltd., priority 2019, dated 2025)

Legend:
[1] = system: lower urinary tract obstruction model of rats; assay: Test Example 1: urination function in female rat lower urinary tract obstruction model (cystometry, tissue wet weights, survival); format: in vivo; conditions: 2 weeks
Excerpt: A lower urinary tract obstruction model of rats was used as a test system. A test substance was orally administered to the lower urinary tract obstruction model repeatedly over two (2) weeks to examine the action on the urination function in the lower urinary tract obstruction model.
More specifically, the rats (female, Crl:CD(SD), 8-week-old; Charles River Laboratories Japan, Inc.) were operated to form lower urinary tract obstruction and repeatedly received oral administration of the test substance at a frequency of once a day over two (2) weeks. After the completion of the administration, each rat was subjected to bladder catheterization under anesthesia, cystometry under no anesthesia, then cystometry under urethane anesthesia, and euthanasia under deep anesthesia, and the tissues (bladder, kidney) of the rat were extracted or surgically removed. As a normal group, the rats without operation for forming lower urinary tract obstruction were used.
The test system, the test substances, and the dosage are as follows. • Normal group: 0.5 v/v. Polysorbate 80 solution, 10 mL/kg (n=6) • Solvent group (control group): 0.5 v/v % Polysorbate 80 solution, 10 mL/kg (n=15) • Group A: Compound A, 10 mg/kg (n=15) • Group B3: Compound B, 3 mg/kg (n=7) • Group B10: Compound B, 10 mg/kg (n=7)
The residual urine volume, the urination efficiency, and the bladder capacity were measured as follows.
After urination, the residual urine was aspirated from the outlet end of the catheter placed in the bladder to measure the volume (mL) of the residual urine.
After urination, the weight of the voided urine was measured to determine the voided volume (g=mL), and then the urination efficiency was calculated by the following equation: Urination efficiency (%)=[(Voided volume (mL))/(Voided volume (mL)+Residual urine volume (mL))]×100 [Bladder Capacity]
The bladder capacity was calculated from the voided volume and the residual urine volume by the following equation: Bladder capacity(mL)=Voided volume (mL)+Residual urine volume (mL)
Moreover, the wet weight of the extracted bladder and that of the extracted kidney were measured.

[2] = system: model of a urination disorder associated with streptozocin-induced diabetes; assay: Test Example 6: urination disorder model associated with streptozocin-induced diabetes, compound A versus dutasteride; format: in vivo, rat
Protocol: As described below, a model of a urination disorder associated with streptozocin-induced diabetes was prepared as a urination disorder model in accordance with Test Example 4 to evaluate the effects of the compound A and the compound C on a urination disorder. This model has no benign prostatic hyperplasia and is a model of a urination disorder associated with neuropathy and smooth muscle contraction disorder.
The body weights of Rats (male, Crl:CD(SD), 5-week-old; Charles River Laboratories Japan, Inc.) were measured. On the basis of the body weight, the rats were grouped or divided into two (2) groups. The day after the rats were grouped, a fist group received intraperitoneal administration of a citrate buffer (pH 4.5) (10 mL/kg) having a concentration of 0.1 mmol/L, and a second group received intraperitoneal administration of streptozocin (STZ; Sigma-Aldrich) (50 mg/kg). Streptozocin (STZ) was administered in the form of a solution of streptozocin having a concentration of 5 mg/mL in the citrate buffer.
About one (1) week after streptozocin (STZ) was administered, the body weight and the fasting blood glucose were measured. In the streptozocin (STZ) administration group (the second group), individuals having a fasting blood glucose level of not less than 300 mg/dL were used as animals with induced diabetes. These animals with induced diabetes are a model having no abnormality of the prostate (having no benign prostatic hyperplasia). On the basis of the body weight and the fasting blood glucose level, the animals (models) with induced diabetes were grouped or divided into three (3) groups by randomized, multivariable block allocation.
To the three model groups with induced diabetes, a 0.5 v/v % Polysorbate 80 solution (0.5% P) (10 mL/kg), the compound A (3 mg/kg), and the compound C (dutasteride) (0.3 mg/kg) were orally administered, respectively, wherein the administration schedule in all groups was a frequency of once a day, only on weekdays, over four (4) weeks. Moreover, to the above-mentioned first group, a 0.5 v/v % Polysorbate 80 solution (0.5% P) (10 mL/kg) was orally administered in the same administration schedule (normal group). On the last day of administration, a cannula was inserted into and secured to the dome of the bladder under isoflurane anesthesia, and cystometry (Cystometogram, CMG) was conducted in the order of under awake condition and under urethane anesthesia to measure the intravesical pressure, the voided volume, and the residual urine volume. After the completion of the measurement, the blood was collected under deep isoflurane anesthesia, and then the prostate (ventral prostate, dorsolateral prostate) was extracted and each was weighed. Moreover, the blood glucose level in the collected blood was measured.
The test substances and the dosage in the test system (rats having the urination disorder associated with diabetes) are as follows. • Normal group: citrate buffer 10 mL/kg (intraperitoneal administration), 0.5% P 10 mL/kg (oral administration) (n=10) • Solvent group (control group): STZ 50 mg/kg (intraperitoneal administration), 0.5% P 10 mL/kg (oral administration) (n=10) • Group A3: STZ 50 mg/kg (intraperitoneal administration), Compound A 3 mg/kg (oral administration) (n=10) • Group C0.3: STZ 50 mg/kg (intraperitoneal administration), Compound C (dutasteride) 0.3 mg/kg (oral administration) (n=10)
Urination parameter: In the same manner as in Test Example 4, the residual urine volume (mL) and the urination efficiency % were determined as urination parameters in each urination, and the average value of two measurements was taken as a measured value of each individual.
Prostate weight: In the same manner as in Test Example 4, the weight of the prostate (ventral prostate, dorsolateral prostate, and whole) was converted to a tissue weight per 100 g of the body weight. […]

[3] = system: uterine weight associated with rat deciduoma formation; assay: Test Example 5: antiprogesterone activity, uterine weight associated with rat deciduoma formation in ovariectomized rats; format: in vivo; conditions: 192 h, Group D: 3 mg/kg oral once a day, 8 days, ovariectomized female rats, compared with solvent group, FIG. 18, read-out: inhibition rate of uterine weight increase (antiprogesterone action)
Protocol: For the compound A and the compound D (mifepristone), the antiprogesterone activity was measured. Specifically, a sex hormone and a test substance were repeatedly administered to ovariectomized rats as a test system to examine the antiprogesterone action (antiprogesterone activity) based on, as an index, the fluctuation of the uterine weight (the inhibitory action relative to the increase of the weight) associated with rat deciduoma formation.
More specifically, rats (female, Crl:CD(SD), 5-week-old: Charles River Laboratories Japan, Inc.) were subjected to ovariectomy, and from one (1) week after the ovariectomy, a high dose estrone or 5 μg/one animal was hypodermically administered to the rats once a day for three (3) days. From the day after one day rest period, the rats received, once a day over eight (8) days, hypodermic administration of a low dose estrone (1 μg/one animal), intramuscular administration of progesterone (6 mg/kg), and oral administration of a test substance. In the middle of the administration, on Day 4 of the start of administration, the rats were subjected to a stimulation treatment of decidualization reaction to the right uterus. The day after the final administration, the uterine weight (right uterine body) was measured (n=6). Group E was subjected to ovariectomy and a stimulation treatment of decidualization reaction but was not subjected to a hormone treatment.
The test substances and the dosage in the test system (ovariectomized rats) are as follows. • Group E: rats with ovariectomy without hormone treatment • 0.5 v/v % Polysorbate 80 solution, 10 mL/kg (n=6) • Solvent group (control group): 0.5 v/v % Polysorbate 80 solution, 10 mL/kg (n=6) • Group A3: Compound A, 3 mg/kg (n=6) • Group A10: Compound A, 10 mg/kg (n=6) • Group A30: Compound A, 30 mg/kg (n=6) • Group D: Compound D (mifepristone), 3 mg/kg (n=6)

[4] = Group C0.3: 0.3 mg/kg oral, 4 weeks, relative to solvent group

In the case of `CC(=O)O[C@]1(C(C)=O)CC[C@H]2[C@@H]3C=C(Cl)C4=CC(=O)OC[C@]4(C)[C@H]3CC[C@@]21C` [Compound B, 17α-acetoxy-6-chloro-2-oxa-4,6-pregnadiene-3,20-dione, reference compound], the residual urine volume ([1]; Groups B3 and B10: 3 mg/kg and 10 mg/kg oral once a day, vs control group, FIG. 1) is reported as “significantly increased”, the urination efficiency ([1]; Groups B3 and B10: 3 mg/kg and 10 mg/kg oral once a day, vs control group, FIG. 2) is reported as “reduced” and the bladder capacity ([1]; Groups B3 and B10: 3 mg/kg and 10 mg/kg oral once a day, vs control group, FIG. 3) is reported as “significantly increased”. The bladder wet weight ([1]; Groups B: 3 mg/kg and 10 mg/kg oral once a day, FIG. 4) was “in the direction of increasing”, the kidney wet weight ([1]; Groups B: 3 mg/kg and 10 mg/kg oral once a day, FIG. 5) was “in the direction of increasing” and the survival rate ([1]; Groups B: 3 mg/kg and 10 mg/kg oral once a day, FIG. 6) was “decreased”.

With `C[C@]12C=CC(=O)N[C@@H]1CC[C@@H]1[C@@H]2CC[C@]2(C)[C@@H](C(=O)Nc3cc(C(F)(F)F)ccc3C(F)(F)F)CC[C@@H]12` [Compound C, dutasteride, reference compound] the “therapeutic effect on diabetes (blood glucose level)” value ([2]; Group C0.3: 0.3 mg/kg oral, 4 weeks) was “no therapeutic effect on diabetes”, the “Dorsolateral prostate (atrophy rate)” value [2, 4] was “(37.5%)” and the “Ventral prostate (atrophy rate)” value [2, 4] was “(42.7%)”. For the same compound, the “Whole prostate (atrophy rate)” value [2, 4] was “(40.7%)”, the “bladder contraction force on urination by nomogram analysis (distance from the origin)” value ([2]; Group C0.3: 0.3 mg/kg, FIG. 21) was “almost the same position as the solvent group” and the residual urine volume ([2]; Group C0.3: 0.3 mg/kg, cystometry under awake condition, vs solvent group, FIG. 19) was “did not statistically affect”. The urination efficiency ([2]; Group C0.3: 0.3 mg/kg, cystometry under awake condition, vs solvent group, FIG. 20) was “did not statistically affect”.

For `CC#C[C@]1(O)CC[C@H]2[C@@H]3CCC4=CC(=O)CCC4=C3[C@@H](c3ccc(N(C)C)cc3)C[C@@]21C` [Compound D, mifepristone, reference compound], the inhibition at 3 mg/kg [3] was 89.5%.
